Source: publication PMC6941357, “An in vitro toolbox to accelerate anti-malarial drug discovery and development” (Malaria Journal, 2020)
Like-named read-outs stand apart in the source and are kept apart here. Marks after values point to notes of the source that are not given here.

Legend:
[1] = Binding in DMEM with 10% FCS via ultracentrifugation; assay type: in vitro ADME, calf; conditions: bovine, pH 7.4
Experimental: Dulbecco’s Modified Eagle’s Medium (DMEM) containing GlutaMAX-I was purchased from Invitrogen (Thermo Fisher Scientific) and stored at 4 °C. Medium was prepared by adding heat inactivated foetal calf serum (FCS, final 10% v/v), penicillin (final 100 U/mL), streptomycin (final 100 µg/mL) D-glucose (final 4.0 mg/mL) and sodium pyruvate (final 0.1 mg/mL).
An ultracentrifugation method adapted from a previous publication was initially used to assess plasma protein binding and binding in the other media. […] Additional ultracentrifuge tubes containing spiked matrix were maintained at 37 °C, 5% or 10% CO2 or normal atmosphere conditions, with aliquots being taken within 0.5 h of the start and at the end of ultracentrifugation to serve as controls for the assessment of stability and to obtain a measure of the total concentration (Ctotal). Following ultracentrifugation, the pH was checked and an aliquot of protein-free supernate was taken from each ultracentrifuge tube for determination of the unbound concentration (Cunbound).
Total matrix and protein free samples were analysed using a matrix matching approach whereby each sample was mixed in a 1:1 ratio with the opposite blank medium (i.e. blank total matrix or blank protein free buffer). For example, plasma samples were mixed with blank pH 7.4 buffer whereas plasma supernatant samples were mixed with blank plasma. Each of the sample sets were then assayed against a common calibration curve prepared in a 1:1 mixture of total matrix and protein free pH 7.4 buffer. […] The standard deviation for fu was calculated using the propagation of errors approach as described previously. The potential for compound degradation was assessed by comparing the average value for Ctotal at the start and end of the experiment.

[2] = Ionization constants by potentiometric titration; assay type: physicochemical; conditions: aqueous solution (DMSO stock diluted 1:10 with water), mean ± SD, n = 3 titrations, read-out: Measured pKa
Experimental: The autotitrator was controlled by Tiamo software (Version 1.3). pH measurements were conducted using a Metrohm LL Micro glass electrode which was calibrated on the day of use with calibration standards at pH 2, 4, 7 and 10. All reagents were standardized (directly or indirectly) against potassium hydrogen phthalate (Sigma-Aldrich, A.C.S. Acidimetric Standard). Titrant solutions were protected from carbon dioxide absorption by flushing with nitrogen before sealing or by the incorporation of a drying tube filled with self-indicating soda lime into the titration reaction vessel set-up.
Aliquots were introduced directly into the titration vessel and diluted 1:10 with water (typical final compound concentration of 0.5 mM).

[3] = Plasma protein binding via rapid equilibrium dialysis (RED), 10% plasma; assay type: in vitro ADME, human; conditions: human, 10% pooled plasma (diluted 1:10), pH 7.4, RED, 10% plasma corrected for dilution; for fraction unbound at 6 h: 6 h dialysis; for fraction unbound at 24 h: presaturation of device and 24 h dialysis
Experimental: Pooled human plasma (n = 3–4 donors) was obtained by centrifugation of blood (collected by the Australian Red Cross Blood Service, Melbourne, Australia or the Volunteer Blood Donor Registry, Clinical Translation Centre, Walter & Eliza Hall Institute of Medical Research, Parkville, Australia), or sourcing pooled plasma directly from commercial sources (Innovative Research Inc, MI) and stored frozen at − 80 °C.
Plasma was diluted 1:10 with pH 7.4 phosphate buffer (prepared by mixing 0.1 M sodium dihydrogen phosphate and 0.1 M disodium hydrogen phosphate (both containing 0.04 M NaCl) to pH 7.4) and spiked with compound to achieve a total measured concentration of ~ 1000–3000 ng/mL. Diluted plasma was vortex mixed briefly and aliquots (n = 3–4) were transferred to RED (Thermo Fisher Scientific, Waltham, MA) units that were placed at 37 °C under ambient atmosphere on a plate shaker. […] At the end of the dialysis period, samples were removed from both the donor and dialysate chambers of the RED units. […] Fraction unbound values were calculated for each individual RED unit and the mean and SD calculated for n = 3–4 replicates.
Briefly, the RED device was exposed for two 30 min periods and one overnight period to fresh solutions of compound prepared in pH 7.4 buffer at approximately 10% of the total dialysis concentration. Following the preincubations, solutions were removed from the RED device and discarded. […] Samples were removed and analysed as described above.
For binding assessments using 10% plasma, the unbound fraction (fu) in neat plasma was calculated using the average values for Ctotal and Cunbound and Eq.

[4] = tested on: Caco-2 cell monolayers; conditions: cited from earlier work; for Literature ER: Caco-2, ref [33], [35] of Additional file 1; for Literature Papp: Caco-2 A-B, ref [33]–[35] of Additional file 1; for A–B Papp / B–A Papp: matrix: human plasma, corrected for fu
[5] = tested on: human liver microsomes; assay: in vitro; conditions: human, 1 µM, pH 7.4
Summary of the method: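 Compound depletion in human liver microsomes was followed by LC–MS at 2–60 min, with cofactor-free controls. First-order depletion rate constants gave in vitro CLint (µL/min/mg protein), corrected to unbound CLint using measured microsomal fu.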

[6] = human, cited from earlier work
[7] = apparent oral volume of distribution

For CC1(C)c2nc(-c3ccc(F)cc3)c(Nc3ccc(F)cc3)n2CCN1C(=O)CN [KAF156], the fraction unbound at […], 1000 ng/mL ([1]; DMEM with 10% FCS) was 0.477 ± 0.032 and the pKa ([2]; basic pKa (B)) was 8.4 ± 0.06.

Work on CCCCN(CCCC)CC(O)c1cc(Cl)cc2c1-c1ccc(Cl)cc1/C2=C/c1ccc(Cl)cc1 (stereo not drawn) [Lumefantrine] yielded a fraction unbound at 6 h [3] of less than 0.0001 and a fraction unbound at 24 h [3] of less than 0.0001.

For CS(=O)(=O)c1ccc(-c2cnc(N)c(-c3ccc(C(F)(F)F)nc3)c2)cc1 [MMV048], the fraction unbound at 6 h [3] was 0.11 ± 0.007, the fraction unbound at […], 1000 ng/mL ([1]; DMEM with 10% FCS) was 0.653 ± 0.06 and the pKa ([2]; basic pKa (B)) was 4 ± 0.07.

With Cc1nc(Nc2ncc(N3CCN(C)[C@H](C)C3)c(Nc3cc(C)n(C)n3)n2)cc(C2CC2)c1F [MMV253] the fraction unbound at 24 h [3] was 0.017 ± 0.0002 and the pKa ([2]; basic pKa (B)) was 8 ± 0.03.

In the case of OC(c1cc(C(F)(F)F)nc2c(C(F)(F)F)cccc12)C1CCCCN1 (stereo not drawn) [Mefloquine], the pKa ([2]; basic pKa (B)) is given as 8.5 ± 0.04, the “Literature ER” value [4] is given as 0.7 and the “Literature Papp” value [4] is given as 9.9 ± 0.7 10-6 cm/sec. For the same compound, the “A–B Papp” value [4] was 180 ± 20 10^−6 cm/s, the “B–A Papp” value [4] was 150 ± 10 10^−6 cm/s and the “Unbound CLint” value [5] was < 140^c µL/min/mg.

For CC(C)(N)CNC(=O)C[C@H]1CC[C@]2(CC1)OO[C@]1(O2)C2CC3CC(C2)CC1C3 [OZ277, Arterolane], the fraction unbound at 6 h [3] is listed as 0.056, the half-life ([6]; in vivo, ref Table 10) is listed as roughly 3 h and the CL/F [6] is listed as 184 L/h. The Food effect [6] was “no”, the V/F [6] was 929 L and the half-life [6] was 3 h. The pKa ([2]; basic pKa (B)) was 8.9 ± 0.16 and the “Unbound CLint” value [5] was less than 159 µL/min/mg.

In the case of Clc1ccc2c(N3CCN(CCCN4CCN(c5ccnc6cc(Cl)ccc56)CC4)CC3)ccnc2c1 [Piperaquine], the fraction unbound at 24 h [3] is given as 0.0003 ± 0.0001, the fraction unbound at […], 1000 ng/mL ([1]; DMEM with 10% FCS) is given as 0.092 ± 0.003 and the “A–B Papp” value [4] is given as > 300 10^−6 cm/s. The “B–A Papp” value [4] was > 300 10^−6 cm/s.

In the case of COc1cc(NC(C)CCCN)c2ncccc2c1 (stereo not drawn) [Primaquine], the half-life ([6]; in vivo, ref Table 10) is listed as ~ 7 h, the CL/F ([6]; apparent oral clearance) is listed as 28 L/h and the V/F [6, 7] is listed as 277 L. The Food effect [6] was “no”, the half-life [6] was 7 h and the fraction unbound at […], 1000 ng/mL [1] was 0.78 ± 0.025.

Compound CCc1nc(N)nc(N)c1-c1ccc(Cl)cc1 [Pyrimethamine] has a fraction unbound at 6 h [3] of 0.095 ± 0.001, a fraction unbound at […], 1000 ng/mL ([1]; DMEM with 10% FCS) of 0.48 ± 0.034 and a pKa ([2]; basic pKa (B)) of 6.9 ± 0.1.

For COc1ccc2nc3cc(Cl)ccc3c(Nc3cc(CN4CCCC4)c(O)c(CN4CCCC4)c3)c2n1 [Pyronaridine], the fraction unbound at 6 h [3] is given as 0.09 ± 0.012, the “Literature ER” value [4] is given as 1.8 and the “Literature Papp” value [4] is given as 10.3 ± 0.3 10-6 cm/sec.

With N#Cc1cc(NC(=O)[C@H]2c3ccccc3C(=O)N(CC(F)(F)F)[C@@H]2c2cccnc2)ccc1F [SJ733] the fraction unbound at 6 h [3] was 0.1, the fraction unbound at 24 h [3] was 0.085 ± 0.012 and the pKa ([2]; basic pKa (B)) was 4.1 ± 0.03.

Compound COc1ncnc(NS(=O)(=O)c2ccc(N)cc2)c1OC [Sulfadoxine] has a fraction unbound at 6 h [3] of 0.025, a fraction unbound at […], 1000 ng/mL ([1]; DMEM with 10% FCS) of 0.86 ± 0.044 and a pKa ([2]; acidic pKa (A)) of 6.2 ± 0.01.

For COc1cc(C)c2c(Oc3cccc(C(F)(F)F)c3)c(OC)cc(NC(C)CCCN)c2n1 (stereo not drawn) [Tafenoquine], the fraction unbound at 6 h [3] is given as less than 0.0007, the fraction unbound at 24 h [3] is given as 0.0007 ± 0.00017 and the CL/F ([6]; apparent oral clearance) is given as 3.0 L/h. The V/F [6, 7] was 1600 L, the Food effect [6] was “yes” and the half-life [6] was 360 h. The half-life ([6]; ref Table 10) was ~ 15 days, the fraction unbound at […], 1000 ng/mL ([1]; DMEM with 10% FCS) was 0.038 ± 0.001 and the pKa ([2]; basic pKa (B)) was 8.7 ± 0.09.
